As usually defined, the melting point is the temperature of the solid-liquid transition.

The compound `CC(=O)OC1CSC(Oc2ccnc(Br)c2)C(OC(C)=O)C1OC(C)=O` (stereo not given) came in with a melting point of 162 °C.
Turning to `O=C(Nc1ccc(N2CCCC2)nc1)c1cc2cc(F)ccc2n1Cc1ccncc1`, the melting point is 255 to 257 °C.
Take `NS(=O)(=O)c1cccc(C2CC2)c1`: the melting point was in the range of 71.5 to 72.9 °C.
`CCCS(=O)(=O)Oc1ccc(CO)c(Oc2ncc(C(F)(F)F)cc2Cl)c1` displayed a melting point of 68.5 to 69.5 °C.
As for `COc1ccc(SCn2cc(Cl)cnc2=O)cc1`, the melting point turned out to be 140 °C.
The result for `Fc1ccccc1CSc1nc2cnccc2[nH]1` reads 186 to 188 °C; that for `CCN(CC)CCNc1ccc(CNc2ccccc2)c2sc3ccccc3c(=O)c12`, 133 to 135 °C; that for `O=C(Nc1ccc(-c2nc(-c3ccco3)no2)c(Cl)c1)Oc1ccccc1`, 184 to 186 °C.
Regarding `CCOC(=O)c1nnn[nH]1`, the melting point lay in the range of 86 to 90 °C.
`CCCCN(CCCc1coc2c(OC)cccc12)C1COc2c(F)ccc(C(N)=O)c2C1` (stereo not given) yielded a melting point of 110 to 117 °C.
The compound `COC(=O)c1ccc(OCCCCC2Cc3c(c(OC)c(OC)c(OC)c3OC)C2)cc1` came in with a melting point of 68 to 71 °C.
Take `O=C(O)C1CCCc2cc(C3CCCCC3)c(Cl)cc21` (stereo not given): the melting point fell in the range of 119 to 120 °C.
The result for `O=C(O)c1ccc(-c2coc3ccc(-c4ccccc4)cc23)cc1` reads 245 to 248 °C; that for `CN(O)C(=O)c1ccccc1Nc1c(Cl)cccc1Cl`, 137 to 140 °C; that for `COc1ccc(Nc2cnc3cnc(-c4ccc(O)cc4)nc3c2)cc1`, 134 to 136 °C.
In turn, `O=C(O)Cc1ccc(Cc2n[nH]c3c2c(=O)n(-c2ccccc2)c2ncccc32)cc1` registered a melting point of 297 to 300 °C.
In turn, `CCCCc1nc2cccnc2n1Cc1ccc2c(Cl)c(C(=O)O)sc2c1` showed a melting point of more than 260 °C.
The result for `Oc1cc(-c2ncc(C(F)(F)F)cc2Cl)ccc1Cl` reads 105 to 107 °C; that for `CC1(C)Oc2ccc(C(=O)CO)cc2[C@H](NC(=O)c2ccc(F)cc2)[C@H]1O`, 216 °C.
On to `CCCCCCCCCCCCCCCC(=O)OCc1ccco1`, for which the melting point is 31 to 33 °C.
In the case of `O=C1c2ccccc2C(O)N1CCBr` (racemic) it was 123 to 124 °C.
As for `CNC(=O)N(O)CCNC(=O)c1cccc(Oc2ccc(Cl)cc2)c1`, the melting point was in the range of 157 to 158 °C.
`N#Cc1c[nH]c(-c2ccc3ccccc3c2)c1` returned a melting point of 200 to 206 °C.
In turn, `CCCCNc1c(N)cc(C(=O)O)cc1S(N)(=O)=O` returned a melting point of 211 to 212 °C.
For the compound `N#Cc1c2cccccc-2nc1NCCC(c1ccccc1)c1ccccc1`, the melting point lay within 178 to 180 °C.
In the case of `CC(C(N)=O)c1ccc2c(c1)Oc1ncccc1CC2=O` (stereo not given) it was 89 to 90 °C; in that of `CCCCCC(=O)Nc1ccc2ccn(CCCCCCCC#N)c2c1`, 85 to 86 °C.
As for `COc1ccc(-c2cncc(OC3SCC(O)C(O)C3O)c2)c(Cl)c1` (stereo not given), the melting point was 218 °C.
As for `CCCCCn1c2ccccc2c2cc(C(=O)N3CCOCC3)ccc21`, the melting point is 99 to 101 °C.
The compound `N#Cc1cnn2c1N(C(=O)CCl)CC=C2c1cc(Cl)ccc1Cl` came in with a melting point of 235 to 236 °C.
`CCCCCS(=O)(=O)NC(=O)/C=C/c1ccc(OCCOC)cc1Oc1ncc(C(F)(F)F)cc1Cl` came in with a melting point of 123 to 125 °C.
`CCOP(=O)(OCC)C(O)=Cc1nn(-c2ccc(F)cc2)cc1-c1ccc(Cl)cc1` displayed a melting point of 96 to 98 °C.
`O=C(Nc1cc2ncc(CN3CCCC3)cc2cc1F)c1ccc(-c2ccc(C(F)(F)F)cc2)cc1` returned a melting point of 209 to 212 °C.
In the case of `Cc1ccc2sc3cc(C(=O)Cl)ccc3c2c1` it was 127 to 128 °C; in that of `CCOC(=O)c1ncn2c1CN(C)C(=O)c1c(C#N)cccc1-2`, 200 to 201 °C; in that of `COC(=O)Cn1c(C(=O)NC(N)=S)c(C)c2cc(C)ccc21`, 210 to 212 °C.
`Cn1nc(-c2ccc(C(=O)O)cc2)nc1-c1ccccc1` had a melting point of 243 to 244 °C.
On to `COc1ccc(C2=NCCc3c(C)cccc32)cc1`, for which the melting point lay within 83 to 83.5 °C.
The compound `CCC1(CC)C=C(N2CCSC2=NC#N)c2cc(C#N)ccc2O1` displayed a melting point of 251 to 252 °C.
`CCOC(=O)c1c(O)n(CC)c2cc(-c3ccncc3)ccc2c1=O` had a melting point of 153 to 157 °C.
For the compound `Cc1nnc(CNC(=O)[C@H](Cc2ccccc2)NC(=O)OCc2ccccc2)n1-c1ccc(Cl)cc1C(=O)c1ccccc1`, the melting point was 84 to 88 °C.
The result for `Cc1cc(C=Cc2ccccc2OCC(O)CNC(C)(C)C)on1` (stereo not given) reads 83 to 85 °C.
`Nc1cccc(-c2ccc(CCN3CCN(CCc4ccc(F)cc4)CC3)cc2)n1` gave a melting point of 165 to 167 °C.
With `Cn1c(C(F)(F)F)cc(=O)n(-c2cc(OCc3ccccc3)c(Cl)cc2F)c1=O`, the melting point was in the range of 129 to 131 °C.
As for `N#CC(CCOc1ccc(Br)cc1)c1ccc(Cl)cc1Cl` (stereo not given), the melting point was found to be 73.9 °C.
The compound `CC(C)c1ccc(OCCCN2CCN(c3ccc(Cl)nn3)CC2)cc1` yielded a melting point of 125 to 127 °C.
The result for `Nc1nc(N)c(N)c(OCC2CCCCC2)n1` reads 154 °C; that for `C=C(Cl)CC1(C)Cc2cc(O)c(Cl)c(Cl)c2C1=O` (stereo not given), 183 °C; that for `O=C(Cl)c1cc([N+](=O)[O-])c(Cl)c([N+](=O)[O-])c1`, 55 to 57 °C.
Compound `CCCc1nn(-c2ccc(C(F)(F)F)cn2)cc1CCCOc1nn(C)cc1CC(=O)O` displayed a melting point of 119 to 120 °C.
With `O=C(c1ccc(F)cc1)c1noc(CN2CCN(c3ccccc3)CC2)n1`, the melting point lay within 72 to 74 °C.
`O=[N+]([O-])c1ccc2c(c1)OC(CC(F)(F)F)(C(F)(F)F)O2` (stereo not given) displayed a melting point of 87 to 88 °C.
The result for `Nc1cccc(Cn2c(-c3ccc(O)cc3)ccc2-c2ccccc2Cl)n1` reads 170 to 172 °C; that for `CNc1ncc(-c2ccc(C)cc2)c(-c2ccc(C)cc2)n1`, 160 to 162 °C; that for `CC(=O)C1COc2ccccc2C1=O` (stereo not given), 81 to 83 °C.
Compound `CCOC(=O)Cc1nc(-c2ccc(C)cc2)oc1-c1ccco1` yielded a melting point of 84 to 85 °C.
`O=C(CBr)Nc1ccc(Cl)cc1C(=O)c1c(F)cccc1F`: the melting point lay in the range of 146 to 148 °C.
`Nc1nc2nc(NCCCN3CCOCC3)ncc2cc1-c1c(Cl)cccc1Cl` gave a melting point of 224 to 230 °C.
In turn, `COCC[C@H]1CN(C2=Nc3ccccc3Nc3ccc(C(F)(F)F)cc32)CCN1` gave a melting point of 71 to 82 °C.
In the case of `O=C(O)CN1Cc2ccccc2CC(NC(=O)OCC2c3ccccc3-c3ccccc32)C1=O` (stereo not given) it was 117 to 120 °C; in that of `CC(C)(C)c1ccccc1N1CCN(C(=O)c2ccccn2)CC1`, 140 to 145 °C; in that of `O=C(O)CCCc1cc2cc(C(F)(F)F)ccc2n1S(=O)(=O)c1ccc2c(c1)CCO2`, 144 to 149 °C.
`COc1ccc(C(CC(=O)O)CC(=O)O)cc1` showed a melting point of 147 to 150 °C.
Regarding `CCCc1cc(NCc2ccc(Cl)cc2)nc(SCC#N)n1`, the melting point lay in the range of 68 to 70 °C.
The result for `CN1C(=O)C(CCCCBr)Sc2ccccc21` (stereo not given) reads 116 °C; that for `CCCn1c(=O)c2[nH]c(-c3ccc4c(c3)OCCO4)nc2n(CCC)c1=O`, 280 to 282 °C.
`CC(C)(N)Cc1nc2ccccc2[nH]1` showed a melting point of 209 to 214 °C.
Consider `CC(C)(C)C(=O)C(Cc1cccnc1)Oc1ccc(Cl)cc1` (stereo not given), for which the melting point was 77 to 79 °C.
`COC(=O)c1cc(C2=CCCO2)c(C(F)(F)F)cc1NC(C)=O` showed a melting point of 120 to 125 °C.
`Cc1cccc(NC(=O)NCC(=O)N(CC(=O)N(C)c2ccccc2Cl)c2ccccc2)c1` registered a melting point of 175 °C.
In turn, `CC(C)=CCn1c(=O)c(C2=Nc3ccccc3S(=O)(=O)N2)c(O)c2ccccc21` returned a melting point of 249 to 251 °C.
Consider `CC(C)Nc1c(NCc2ccccc2)cc(C(=O)O)cc1S(N)(=O)=O`, for which the melting point was 233 to 234 °C.
`CC(=CCc1c(C)nc(N)nc1N)c1cc(Cl)ccc1Cl`: the melting point was 172 to 174 °C.
As for `CCCNC(=O)C(C)=Cc1ccc2c(c1)c(Cc1ccc(C(=O)O)cc1OC)cn2CCC(=O)N(C)C`, the melting point fell in the range of 90 to 97 °C.
In the case of `CC(C)Oc1cccc(-n2c(NN)nc3ccccc3c2=O)c1` it was 158 to 160 °C.
In the case of `CCN(CC)CCOC(=O)C(C)(c1ccc(O)cc1)c1ccc(O)cc1`, the melting point is 140 to 141 °C.
The compound `N#CCCNc1ccc(CCCN2CCN(c3ccccc3)CC2)cc1` had a melting point of 141 to 143 °C.
Regarding `CC12CCC3c4ccc(O)cc4C(O)C(Sc4ccc(Br)cc4)C3C1CCC2O` (stereo not given), the melting point fell in the range of 140 to 145 °C.
In turn, `O=C(O)C1=Cc2ccc(Cl)cc2SC1C(F)(F)F` (stereo not given) returned a melting point of 226 to 227 °C.
`O=C(NCCOc1ccc(CC(Oc2ccc(F)c(F)c2)C(=O)O)cc1)c1ccc(-c2ccccn2)cc1` (stereo not given) yielded a melting point of 135 to 136 °C.
For `O=CNNc1ccccc1NC(=S)Nc1ccccc1`, the melting point lay within 224 to 226 °C.
Turning to `COc1cc(CCCn2cncn2)ccc1OCc1coc(/C=C/c2ccccc2)n1`, the melting point lay in the range of 113 to 114 °C.
For the compound `CC(C)c1nc2c([nH]1)c(=S)[nH]c(=O)n2-c1cccc(Cl)c1`, the melting point lay within 290 to 293 °C.
On to `Cc1cccc(NC(=O)NCC(=O)N(CC(=O)OC(C)(C)C)c2ccccc2Nc2ccccc2)c1`, for which the melting point was 180 °C.
`CCc1noc(C)c1-c1[nH]c2ccccc2c1CCCCN(C)C` displayed a melting point of 156 to 158 °C.
In the case of `Cc1ccc2c(c1)CCOC2CCN1CCN(c2ccc(S(N)(=O)=O)cc2)CC1` (stereo not given), the melting point was 221 to 222 °C.
Compound `O=C1CN(C(=O)CN2CC(c3ccc(F)cc3)CC2=O)CCN1` (stereo not given) had a melting point of 200 to 203 °C.
The compound `CCN(CC)CCOc1ccc2c3c(cccc13)C(=O)c1c-2oc2ccccc12` gave a melting point of 115 to 118 °C.
In the case of `FC(F)(F)c1cc(Cl)ccc1N=C(Cl)n1cncn1` it was 165 to 166 °C; in that of `Cc1cc(C(O)(C(F)(F)F)C(F)(F)F)cc(C)c1NCC(N)=O`, 205 to 207 °C.
